What was measured:
Melanocyte [1] = assay: Cytotoxicity against human non-TF expressing melanocytes at 4 uM; assay type: functional, cell-based
RPMI-7951 [2] = assay: Cytotoxicity against human TF expressing RPMI7951 cell line at 2 uM; assay type: functional, cell-based
RPMI-7951 [3] = assay: Viability of human TF expressing RPMI7951 cell line; assay type: cell-based
Melanocyte [4] = assay: Viability of human non-TF expressing melanocytes; assay type: cell-based
MDA-MB-231 = assay: Viability of human TF expressing MDA-MB-231 cell line; assay type: cell-based
[5] = Viability of human non-TF expressing MCF10 cell line; assay type: cell-based; settings: MCF10 cells (non-TF expressing)

In the case of `O=C1/C(=C/c2ccccc2F)CNC/C1=C\c1ccccc1F`, the Activity (Melanocyte [1]) is reported as “Toxic” and the Activity (RPMI-7951 [2]) is reported as “Toxic”.

For `N=C(N)NCCC[C@H](NC(=O)[C@H](Cc1ccccc1)NC(=O)[C@H](Cc1ccccc1)NC(=O)CCC(=O)N1C/C(=C\c2ccccc2F)C(=O)/C(=C/c2ccccc2F)C1)C(=O)CCl.O=C(O)C(F)(F)F`, the Activity (RPMI-7951 [3]) was “Not Active”, the Activity (Melanocyte [4]) was “Not Active” and the Activity (MDA-MB-231) was “Not Active”. The viability [5] was greater than 95%.
